Measured values reported in publication PMC9516332 (Frontiers in Oncology, 2022).
Like-named read-outs stand apart in the source and are kept apart here.

Assays:
AP-1060 (ETV6-NTRK3) = test: Cell viability assay; settings: read-out: IC50 in cell proliferation assay
134 cancer cell lines = test: Cell viability assay (ATPlite, 72 hours), IC50 on cancer cell line panel

COc1cc(N2CCC(N3CCN(C)CC3)CC2)ccc1Nc1ncc(Cl)c(Nc2ccccc2P(C)(C)=O)n1 [brigatinib]
IC50 (AP-1060 (ETV6-NTRK3)): 2400 nM | IC50 (134 cancer cell lines; HEC-6, read-out: IC50 in cell proliferation assay): 5210 nM | IC50 (134 cancer cell lines; Homo sapiens, 769-P, read-out: IC50 in cell proliferation assay): 1910 nM | IC50 (134 cancer cell lines; Homo sapiens, 786-0, read-out: IC50 in cell proliferation assay): 2070 nM | IC50 (134 cancer cell lines; Homo sapiens, A 172, read-out: IC50 in cell proliferation assay): 888 nM | IC50 (134 cancer cell lines; Homo sapiens, A204, read-out: IC50 in cell proliferation assay): 1270 nM | IC50 (134 cancer cell lines; Homo sapiens, A498, read-out: IC50 in cell proliferation assay): 1860 nM | IC50 (134 cancer cell lines; Homo sapiens, A549, read-out: IC50 in cell proliferation assay): 893 nM | IC50 (134 cancer cell lines; Homo sapiens, A704, read-out: IC50 in cell proliferation assay): 3590 nM | IC50 (134 cancer cell lines; Homo sapiens, A-375, read-out: IC50 in cell proliferation assay): 719 nM | IC50 (134 cancer cell lines; Homo sapiens, A-427, read-out: IC50 in cell proliferation assay): 448 nM | IC50 (134 cancer cell lines; Homo sapiens, ACHN, read-out: IC50 in cell proliferation assay): 894 nM | IC50 (134 cancer cell lines; Homo sapiens, AN3-CA, read-out: IC50 in cell proliferation assay): 1860 nM | IC50 (134 cancer cell lines; Homo sapiens, ASPC1, read-out: IC50 in cell proliferation assay): 809 nM | IC50 (134 cancer cell lines; Homo sapiens, AU565, read-out: IC50 in cell proliferation assay): 2580 nM | IC50 (134 cancer cell lines; Homo sapiens, BT-20, read-out: IC50 in cell proliferation assay): 4210 nM | IC50 (134 cancer cell lines; Homo sapiens, BT-474, read-out: IC50 in cell proliferation assay): 7880 nM | IC50 (134 cancer cell lines; Homo sapiens, BT-549, read-out: IC50 in cell proliferation assay): 3010 nM | IC50 (134 cancer cell lines; Homo sapiens, BXPC-3, read-out: IC50 in cell proliferation assay): 619 nM | IC50 (134 cancer cell lines; Homo sapiens, C-33-A, read-out: IC50 in cell proliferation assay): 527 nM | IC50 (134 cancer cell lines; Homo sapiens, CAL-27, read-out: IC50 in cell proliferation assay): 673 nM | IC50 (134 cancer cell lines; Homo sapiens, CCF-STTG1, read-out: IC50 in cell proliferation assay): 3440 nM | IC50 (134 cancer cell lines; Homo sapiens, CCRF-CEM, read-out: IC50 in cell proliferation assay): 3600 nM | IC50 (134 cancer cell lines; Homo sapiens, COLO 205, read-out: IC50 in cell proliferation assay): 998 nM | IC50 (134 cancer cell lines; Homo sapiens, COLO-829, read-out: IC50 in cell proliferation assay): 2560 nM | IC50 (134 cancer cell lines; Homo sapiens, DLD-1, read-out: IC50 in cell proliferation assay): 4720 nM | IC50 (134 cancer cell lines; Homo sapiens, DU-145, read-out: IC50 in cell proliferation assay): 667 nM | IC50 (134 cancer cell lines; Homo sapiens, DU-4475, read-out: IC50 in cell proliferation assay): 1790 nM | IC50 (134 cancer cell lines; Homo sapiens, Daoy, read-out: IC50 in cell proliferation assay): 3070 nM | IC50 (134 cancer cell lines; Homo sapiens, DoTc2-4510, read-out: IC50 in cell proliferation assay): 270 nM | IC50 (134 cancer cell lines; Homo sapiens, EOL1, read-out: IC50 in cell proliferation assay): 50 nM | IC50 (134 cancer cell lines; Homo sapiens, FaDu, read-out: IC50 in cell proliferation assay): 971 nM | IC50 (134 cancer cell lines; Homo sapiens, G-361, read-out: IC50 in cell proliferation assay): 9280 nM | IC50 (134 cancer cell lines; Homo sapiens, HCC827, read-out: IC50 in cell proliferation assay): 129 nM | IC50 (134 cancer cell lines; Homo sapiens, HCC4006, read-out: IC50 in cell proliferation assay): 152 nM | IC50 (134 cancer cell lines; Homo sapiens, HCT-15, read-out: IC50 in cell proliferation assay): 3770 nM | IC50 (134 cancer cell lines; Homo sapiens, HCT-116, read-out: IC50 in cell proliferation assay): 1690 nM | IC50 (134 cancer cell lines; Homo sapiens, HEC-1, read-out: IC50 in cell proliferation assay): 1810 nM | IC50 (134 cancer cell lines; Homo sapiens, HEC-1B, read-out: IC50 in cell proliferation assay): 367 nM | IC50 (134 cancer cell lines; Homo sapiens, HL-60, read-out: IC50 in cell proliferation assay): 1110 nM | IC50 (134 cancer cell lines; Homo sapiens, HT, read-out: IC50 in cell proliferation assay): 4540 nM | IC50 (134 cancer cell lines; Homo sapiens, HT-1080, read-out: IC50 in cell proliferation assay): 1660 nM | IC50 (134 cancer cell lines; Homo sapiens, Hs746T, read-out: IC50 in cell proliferation assay): 2140 nM | IC50 (134 cancer cell lines; Homo sapiens, Hs-578T, read-out: IC50 in cell proliferation assay): 1390 nM | IC50 (134 cancer cell lines; Homo sapiens, HuTu80, read-out: IC50 in cell proliferation assay): 451 nM | IC50 (134 cancer cell lines; Homo sapiens, J82, read-out: IC50 in cell proliferation assay): 1880 nM | IC50 (134 cancer cell lines; Homo sapiens, Jurkat E6.1, read-out: IC50 in cell proliferation assay): 4380 nM | IC50 (134 cancer cell lines; Homo sapiens, K562, read-out: IC50 in cell proliferation assay): 2740 nM | IC50 (134 cancer cell lines; Homo sapiens, KATO III, read-out: IC50 in cell proliferation assay): 211 nM | IC50 (134 cancer cell lines; Homo sapiens, KG-1, read-out: IC50 in cell proliferation assay): 243 nM | IC50 (134 cancer cell lines; Homo sapiens, KLE, read-out: IC50 in cell proliferation assay): 553 nM | IC50 (134 cancer cell lines; Homo sapiens, KMS-11, read-out: IC50 in cell proliferation assay): 430 nM | IC50 (134 cancer cell lines; Homo sapiens, KU812, read-out: IC50 in cell proliferation assay): 1390 nM | IC50 (134 cancer cell lines; Homo sapiens, Kasumi 1, read-out: IC50 in cell proliferation assay): 207 nM | IC50 (134 cancer cell lines; Homo sapiens, LC-2-ad, read-out: IC50 in cell proliferation assay): 334 nM | IC50 (134 cancer cell lines; Homo sapiens, LNCaP-Clone-FGC, read-out: IC50 in cell proliferation assay): 689 nM | IC50 (134 cancer cell lines; Homo sapiens, LS174T, read-out: IC50 in cell proliferation assay): 1330 nM | IC50 (134 cancer cell lines; Homo sapiens, LS-411N, read-out: IC50 in cell proliferation assay): 1760 nM
